Results published in PubChem BioAssay (NCI).
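Dose response: 5 concentrations. Exposure: 48 h. Format: 96-well plates. Endpoint: linear interpolation; highest concentration if not reached. Here, GI50 denotes the concentration required for 50% inhibition of growth. Definition used: TGI = concentration required for complete inhibition of growth.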

What was measured:
Assay in all cases: NCI-60 cell line screen, 48 h
[1] = test system: SF-539 CNS
[2] = test system: OVCAR-4 ovarian
[3] = test system: HCT-116 colon
[4] = test system: DU-145 prostate
[5] = test system: MDA-MB-231 breast
[6] = test system: EKVX NSCLC
[7] = test system: NCI-H23 lung
[8] = test system: RXF 393 renal
[9] = test system: HCT-15 colon
[10] = test system: MOLT-4 leukemia
[11] = test system: HL-60(TB) leukemia
[12] = test system: UO-31 renal
[13] = test system: OVCAR-8 ovarian
[14] = test system: OVCAR-5 ovarian
[15] = test system: SR leukemia
[16] = test system: MCF7 breast
[17] = test system: MALME-3M melanoma
[18] = test system: A549 NSCLC
[19] = test system: NCI-H522 lung
[20] = test system: IGROV1 ovarian
[21] = test system: T-47D breast
[22] = test system: SF-295 CNS
[23] = test system: HOP-62 NSCLC
[24] = test system: K-562 leukemia
[25] = test system: NCI-H226 lung
[26] = test system: MDA-MB-468 breast
[27] = test system: SNB-19 CNS
[28] = test system: COLO 205 colon
[29] = test system: HT29 colon
[30] = test system: SF-268 CNS
[31] = test system: SN12C renal
[32] = test system: A498 renal
[33] = test system: TK-10 renal
[34] = test system: UACC-257 melanoma
[35] = test system: HOP-92 NSCLC
[36] = test system: HCC-2998 colon
[37] = test system: U251 CNS
[38] = test system: SW-620 colon
[39] = test system: SK-MEL-28 melanoma
[40] = test system: BT-549 breast
[41] = test system: SK-MEL-2 melanoma
[42] = test system: LOX IMVI melanoma
[43] = test system: ACHN renal
[44] = test system: RPMI-8226 leukemia
[45] = test system: PC-3 prostate
[46] = test system: 786-0 renal
[47] = test system: KM12 colon
[48] = test system: NCI-H460 lung
[49] = test system: SK-MEL-5 melanoma
[50] = test system: HS 578T breast
[51] = test system: OVCAR-3 ovarian
[52] = test system: UACC-62 melanoma
[53] = test system: CCRF-CEM leukemia
[54] = test system: SNB-75 CNS
[55] = test system: CAKI-1 renal
[56] = test system: SK-OV-3 ovarian
[57] = test system: MDA-MB-435
[58] = test system: M14 melanoma

O=c1cc(-c2ccccc2)oc2cc(OCCCCNCc3ccccc3)cc(O)c12 was tested, and the GI50 [1] was 11.7 µM, the TGI [1] was 25.3 µM and the GI50 [2] was 8.92 µM. For the same molecule, the TGI [2] was 23.6 µM, the GI50 [3] was 4.28 µM and the TGI [3] was 17.2 µM. It also gave a GI50 [4] of 12.2 µM, a TGI [4] of 24.5 µM and a GI50 [5] of 7.02 µM. It also gave a TGI [5] of 21.3 µM, a GI50 [6] of 12.7 µM and a TGI [6] of 25.9 µM. It also gave a GI50 [7] of 13.8 µM, a TGI [7] of 27.4 µM and a GI50 [8] of 1.91 µM. For the same molecule, the TGI [8] was 10.1 µM, the GI50 [9] was 3.48 µM and the TGI [9] was 12.8 µM. It also gave a GI50 [10] of 2.12 µM, a TGI [10] of 9.43 µM and a GI50 [11] of 1.12 µM. The TGI [11] was 3.43 µM, the GI50 [12] was 6.11 µM and the TGI [12] was 21.1 µM. It also gave a GI50 [13] of 12.6 µM, a TGI [13] of 28.7 µM and a GI50 [14] of 19 µM. For the same molecule, the TGI [14] was 35.7 µM, the GI50 [15] was 1.79 µM and the TGI [15] was 4.63 µM. It also gave a GI50 [16] of 3.43 µM, a TGI [16] of 14.9 µM and a GI50 [17] of 2.19 µM. The TGI [17] was 7.29 µM, the GI50 [18] was 7.94 µM and the TGI [18] was 21.1 µM. It also gave a GI50 [19] of 13.1 µM, a TGI [19] of 29.3 µM and a GI50 [20] of 11.4 µM. The TGI [20] was 26.6 µM, the GI50 [21] was 13.7 µM and the TGI [21] was 33.1 µM. It also gave a GI50 [22] of 11.7 µM, a TGI [22] of 24.4 µM and a GI50 [23] of 13.2 µM. It also gave a TGI [23] of 27.5 µM, a GI50 [24] of 1.97 µM and a TGI [24] of 7.35 µM. It also gave a GI50 [25] of 13.5 µM, a TGI [25] of 32 µM and a GI50 [26] of 2.55 µM. The TGI [26] was 11.1 µM, the GI50 [27] was 13.3 µM and the TGI [27] was 27.9 µM. The GI50 [28] was 5.13 µM, the TGI [28] was 18.4 µM and the GI50 [29] was 2.95 µM. It also gave a TGI [29] of 12 µM, a GI50 [30] of 10.6 µM and a TGI [30] of 27 µM. The GI50 [31] was 12.7 µM, the TGI [31] was 28 µM and the GI50 [32] was 19.8 µM. For the same molecule, the TGI [32] was 36.8 µM, the GI50 [33] was 15.5 µM and the TGI [33] was 29.5 µM. The GI50 [34] was 2.99 µM, the TGI [34] was 9.75 µM and the GI50 [35] was 3.73 µM. It also gave a TGI [35] of 21.1 µM, a GI50 [36] of 2.3 µM and a TGI [36] of 5.74 µM. For the same molecule, the GI50 [37] was 6.11 µM, the TGI [37] was 19.1 µM and the GI50 [38] was 10.2 µM. For the same molecule, the TGI [38] was 23.4 µM, the GI50 [39] was 3.24 µM and the TGI [39] was 9.38 µM. It also gave a GI50 [40] of 13.2 µM, a TGI [40] of 26.7 µM and a GI50 [41] of 16.3 µM. For the same molecule, the TGI [41] was 30.2 µM, the GI50 [42] was 3.13 µM and the TGI [42] was 11.2 µM. The GI50 [43] was 12.2 µM, the TGI [43] was 26.9 µM and the GI50 [44] was 2.25 µM. It also gave a TGI [44] of 6.98 µM, a GI50 [45] of 5.01 µM and a TGI [45] of 19.9 µM. It also gave a GI50 [46] of 4.54 µM, a TGI [46] of 18.6 µM and a GI50 [47] of 5.7 µM. It also gave a TGI [47] of 18.9 µM, a GI50 [48] of 4.96 µM and a TGI [48] of 17.4 µM. It also gave a GI50 [49] of 12.2 µM, a TGI [49] of 24.7 µM and a GI50 [50] of 11 µM. For the same molecule, the TGI [50] was 32 µM, the GI50 [51] was 12 µM and the TGI [51] was 25 µM. It also gave a GI50 [52] of 2.16 µM, a TGI [52] of 4.79 µM and a GI50 [53] of 2.89 µM. The TGI [53] was 15.8 µM, the GI50 [54] was 10.5 µM and the TGI [54] was 22.4 µM. For the same molecule, the GI50 [55] was 10.2 µM, the TGI [55] was 22.3 µM and the GI50 [56] was 14.6 µM. It also gave a TGI [56] of 28 µM, a GI50 [57] of 7.98 µM and a TGI [57] of 20.5 µM. The GI50 [58] was 2.02 µM and the TGI [58] was 4.48 µM.
